Experiments:
[1] = tested on: apoptotic Jurkat lymphocytes; assay: In vitro binding tests, apoptotic vs viable cells; settings: for binding to apoptotic cells: apoptotic Jurkat lymphocytes
Description: In vitro binding tests. The PtdE-binding activity of ^99mTc-HYNIC-Duramycin was examined using binding assays in vitro. A good source of exposed PtdE was apoptotic Jurkat lymphocytes incubated with 5 μM final concentration of camptothecin at 37° C. in a humidified atmosphere with 5% CO2. Untreated control or treated cells were harvested by centrifugation at 800 g for 5 min and re-suspended at 2×10^6 per ml. Radiolabeled Duramycin or Duramycin^1 (inactivated Duramycin) was added to each ml of cells at a final concentration of 100 nM, and the binding was allowed to proceed for 5 min at room temperature. The mixture was then loaded onto a layer of Histopaque. After centrifugation at 800 g for 5 min, cell pellet was collected at the bottom of the tube below the Histopaque layer, whereas the media that contained the non-bound radioactivity will remain above Histopaque. The aqueous supernatant was removed by gentle aspiration. The tip of the tube that contains the pellet was cut off using a hot scalpel. Bound radioactivity was determined by direct gamma counting at an energy window of 140±15 keV.

area-at-risk = assay: Spatial and temporal uptake in the area-at-risk after myocardial ischemia and reperfusion; format: in vivo, rat
acute cardiac cell death = assay: Imaging of cardiac cell death after coronary ischemia with or without reperfusion (Example 2); format: in vivo, rat
Description: Cardiology applications include imaging cardiac cell death in heart diseases, such as acute myocardial infarction, myocarditis, myocardial ischemia, and heart transplant rejection. In an experimental example using a rat model, 99mTc-Duramycin was injected into a control rat (FIG. 10A) and a rat in which coronary ischemia was induced, followed by reperfusion (FIG. 10B). Both rats were subsequently imaged. […] A similar experiment was performed using a rat model where induced coronary ischemia was not followed by reperfusion.

[2] = tested on: radiation-induced cell death; assay: Imaging of radiation-induced cell death after whole-body irradiation; format: in vivo, rat; settings: rats, 15 Gy whole-body ionizing irradiation
Text: In an experimental example, 99mTc-Duramycin imaging was used to detect the distribution of radiation-prone tissues after exposure to high-dose ionizing irradiation. […] Control rats were not exposed to ionizing radiation. […] The most radiation-susceptible tissues include the thymus (arrow) and bone marrows (arrow heads and bottom insets).

rat serum albumin = rat serum albumin (Rattus norvegicus, UniProt P02770); settings: RadioHPLC
rat serum albumin, sequence (P02770 25-608): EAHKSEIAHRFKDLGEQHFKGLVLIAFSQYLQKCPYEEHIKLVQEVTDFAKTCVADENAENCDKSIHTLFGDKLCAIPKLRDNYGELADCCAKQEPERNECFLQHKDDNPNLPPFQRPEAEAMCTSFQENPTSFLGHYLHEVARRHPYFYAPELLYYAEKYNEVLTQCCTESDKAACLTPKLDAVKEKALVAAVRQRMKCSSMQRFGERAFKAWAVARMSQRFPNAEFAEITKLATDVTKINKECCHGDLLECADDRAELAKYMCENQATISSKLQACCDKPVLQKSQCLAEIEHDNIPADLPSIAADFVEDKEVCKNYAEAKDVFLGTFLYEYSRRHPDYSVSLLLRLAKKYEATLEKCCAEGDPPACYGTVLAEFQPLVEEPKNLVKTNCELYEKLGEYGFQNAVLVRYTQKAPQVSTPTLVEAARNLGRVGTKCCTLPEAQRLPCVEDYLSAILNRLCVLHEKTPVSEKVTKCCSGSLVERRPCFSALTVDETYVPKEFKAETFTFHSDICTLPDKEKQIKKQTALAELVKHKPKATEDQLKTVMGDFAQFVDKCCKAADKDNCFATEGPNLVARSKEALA

[3] = dissected heart tissues, 60 min after injection

## CC(C)=NNc1ccc(C(=O)NCCCC[C@@H]2NC(=O)[C@@H](N)CS[C@@H](C)[C@H]3NC(=O)[C@H](CC(N)=O)NC(=O)CNC(=O)[C@H]([C@@H](O)C(=O)O)NC(=O)[C@@H]4CSC[C@@H](NC(=O)[C@H](CCC(N)=O)NC2=O)C(=O)N[C@H]2CS[C@@H](C)[C@@H](NC(=O)[C@H](Cc5ccccc5)NC(=O)[C@@H]5CCCN5C(=O)CNC(=O)[C@H](Cc5ccccc5)NC(=O)[C@H](CNCCCC[C@@H](C(=O)O)NC3=O)NC2=O)C(=O)N[C@@H](Cc2ccccc2)C(=O)N[C@@H](C(C)C)C(=O)N4)cn1 [^99mTc-HYNIC-Duramycin, metal not drawn]
[1]
  binding to apoptotic cells: dramatically enhanced
[1]; listed as 99mTc-HYNIC-Duramycin^1
  binding to apoptotic cells: only at background levels
[1]; viable Jurkat lymphocytes as control
  radioactivity uptake in viable cells: remained near background
area-at-risk; after injection
  time uptake in infarct tissues remained persistent without significant washout: at least 3 hours
area-at-risk; area-at-risk, after injection
  time to approach plateau of uptake: ≤ 10 min
area-at-risk; at 180 min
  tracer uptake in the ischemic-non-infarct myocardium: 2.1±0.3 % ID
area-at-risk; [3]
  average infarct-to-normal ratio: 31.9
  average ischemic-to-normal ratio: 11.1
area-at-risk; minimum at 60 min
  tracer uptake in the ischemic-non-infarct myocardium: 1.6±0.6 % ID/g
area-at-risk; peak at around 10 min post-injection
  tracer uptake in the ischemic-non-infarct myocardium: 2.7±0.6 % ID/g
area-at-risk; plateau by 10 min after injection
  radioactivity uptake in the infarcted myocardium: 4.3±0.7 % ID/g
area-at-risk; rat myocardial ischemia and reperfusion
  level (plateau) of uptake in the area-at-risk: ~4 % ID/g
area-at-risk; rat, in vivo
  presence of radioactivity in the infarcted tissue reduced (inactivated tracer): ~60%
  time of maximum radioactivity in the infarcted tissue: about 30 min
area-at-risk; reflecting residual blood pool signal
  radioactivity uptake in the normal myocardium: low
area-at-risk; within 3 min after injection
  radioactivity uptake in the infarcted myocardium: 1.8±0.4 % ID/g
Acute cardiac cell death; infarct model rat, 120 minutes after injection
  imaging of acute cardiac cell death after reperfused coronary ischemia: can be seen
Acute cardiac cell death; rat model
  imaging of cardiac cell death following nonreperfused coronary ischemia: successfully imaged
[2]
  detection of radiation-susceptible tissues: Tissues susceptible to radiation-induced cell death were detected
Rat serum albumin
  complex formation between the tracer and albumin: did not result in any complex formation

From patent US8778303B2, “99mTc-labeled 19 amino acid containing peptide for use as phosphatidylethanolamine binding molecular probe and radiopharmaceutical” (The Medical College of Wisconsin, Inc., priority 2008, dated 2014)
